Assay results from PubChem BioAssay (NCI).
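GI50: concentration for 50% inhibition of growth. The concentration for full growth arrest is given as TGI.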

How the values were obtained:
Test in all cases: inhibition of tumour cell growth, NCI panel, 384-well format
LOX IMVI melanoma = system: LOX IMVI melanoma
PC-3 prostate = system: PC-3 prostate
MOLT-4 leukemia = system: MOLT-4 leukemia
MDA-MB-435 melanoma = system: MDA-MB-435 melanoma
HL-60(TB) leukemia = system: HL-60(TB) leukemia
MCF7 breast = system: MCF7 breast
HCT-15 colon = system: HCT-15 colon
HOP-92 NSCLC = system: HOP-92 NSCLC
A498 renal = system: A498 renal
CAKI-1 renal = system: CAKI-1 renal
786-0 renal = system: 786-0 renal
T-47D breast = system: T-47D breast
NCI-H522 lung = system: NCI-H522 lung
OVCAR-8 ovarian = system: OVCAR-8 ovarian
UACC-257 melanoma = system: UACC-257 melanoma
IGROV1 ovarian = system: IGROV1 ovarian
NCI-H460 NSCLC = system: NCI-H460 NSCLC
OVCAR-4 ovarian = system: OVCAR-4 ovarian
CCRF-CEM leukemia = system: CCRF-CEM leukemia
SF-268 CNS = system: SF-268 CNS
SK-MEL-2 melanoma = system: SK-MEL-2 melanoma
SF-539 CNS = system: SF-539 CNS
SF-295 CNS = system: SF-295 CNS
KM12 colon = system: KM12 colon
K-562 leukemia = system: K-562 leukemia
HT29 colon = system: HT29 colon
UO-31 renal = system: UO-31 renal
NCI-H322M lung = system: NCI-H322M lung
MALME-3M melanoma = system: MALME-3M melanoma
SK-MEL-28 melanoma = system: SK-MEL-28 melanoma
SK-OV-3 ovarian = system: SK-OV-3 ovarian
SR leukemia = system: SR leukemia
SK-MEL-5 melanoma = system: SK-MEL-5 melanoma
MDA-MB-468 breast = system: MDA-MB-468 breast
TK-10 renal = system: TK-10 renal
NCI-H226 lung = system: NCI-H226 lung
M14 melanoma = system: M14 melanoma
U251 glioblastoma = system: U251 glioblastoma
HCC-2998 colon = system: HCC-2998 colon
RXF 393 renal = system: RXF 393 renal
A549 NSCLC = system: A549 NSCLC
UACC-62 melanoma = system: UACC-62 melanoma
BT-549 breast = system: BT-549 breast
OVCAR-5 ovarian = system: OVCAR-5 ovarian
RPMI-8226 leukemia = system: RPMI-8226 leukemia

SMILES: Cc1c(Nc2nccc3cc(CN4CC[C@@H](O)C4)cnc23)cccc1-c1cccc(-c2nc3cc(CN4CC[C@@H](C(=O)O)C4)cc(C#N)c3o2)c1C
- GI50 (LOX IMVI melanoma): 668 nM
- TGI (LOX IMVI melanoma): 1860 nM
- GI50 (PC-3 prostate): 403 nM
- TGI (PC-3 prostate): 1750 nM
- GI50 (MOLT-4 leukemia): 171 nM
- TGI (MOLT-4 leukemia): 315 nM
- GI50 (MDA-MB-435 melanoma): 47.3 nM
- TGI (MDA-MB-435 melanoma): 206 nM
- GI50 (HL-60(TB) leukemia): 172 nM
- TGI (HL-60(TB) leukemia): 314 nM
- GI50 (MCF7 breast): 223 nM
- TGI (MCF7 breast): 1430 nM
- GI50 (HCT-15 colon): 1530 nM
- TGI (HCT-15 colon): 3010 nM
- GI50 (HOP-92 NSCLC): 297 nM
- TGI (HOP-92 NSCLC): 1970 nM
- GI50 (A498 renal): 391 nM
- TGI (A498 renal): 1490 nM
- GI50 (CAKI-1 renal): 464 nM
- TGI (CAKI-1 renal): > 100000 nM
- GI50 ([…]-0 renal): 334 nM
- TGI (786-0 renal): 1260 nM
- GI50 (T-47D breast): 325 nM
- TGI (T-47D breast): > 100000 nM
- GI50 (NCI-H522 lung): 118 nM
- TGI (NCI-H522 lung): 287 nM
- GI50 (OVCAR-8 ovarian): 514 nM
- TGI (OVCAR-8 ovarian): 1830 nM
- GI50 (UACC-257 melanoma): 229 nM
- TGI (UACC-257 melanoma): 1040 nM
- GI50 (IGROV1 ovarian): 1070 nM
- TGI (IGROV1 ovarian): > 100000 nM
- GI50 (NCI-H460 NSCLC): 193 nM
- TGI (NCI-H460 NSCLC): 435 nM
- GI50 (OVCAR-4 ovarian): 459 nM
- TGI (OVCAR-4 ovarian): 4980 nM
- GI50 (CCRF-CEM leukemia): 147 nM
- TGI (CCRF-CEM leukemia): 287 nM
- GI50 (SF-268 CNS): 371 nM
- TGI (SF-268 CNS): 3960 nM
- GI50 (SK-MEL-2 melanoma): 26.2 nM
- TGI (SK-MEL-2 melanoma): 142 nM
- GI50 (SF-539 CNS): 274 nM
- TGI (SF-539 CNS): 971 nM
- GI50 (SF-295 CNS): 416 nM
- TGI (SF-295 CNS): 1450 nM
- GI50 (KM12 colon): 69.7 nM
- TGI (KM12 colon): 679 nM
- GI50 (K-562 leukemia): 205 nM
- TGI (K-562 leukemia): 567 nM
- GI50 (HT29 colon): 213 nM
- TGI (HT29 colon): 496 nM
- GI50 (UO-31 renal): 3250 nM
- TGI (UO-31 renal): > 100000 nM
- GI50 (NCI-H322M lung): 416 nM
- TGI (NCI-H322M lung): > 100000 nM
- GI50 (MALME-3M melanoma): 127 nM
- TGI (MALME-3M melanoma): 851 nM
- GI50 (SK-MEL-28 melanoma): 261 nM
- TGI (SK-MEL-28 melanoma): 1620 nM
- GI50 (SK-OV-3 ovarian): 246 nM
- TGI (SK-OV-3 ovarian): 1180 nM
- GI50 (SR leukemia): 28.9 nM
- TGI (SR leukemia): 107 nM
- GI50 (SK-MEL-5 melanoma): 94.8 nM
- TGI (SK-MEL-5 melanoma): 321 nM
- GI50 (MDA-MB-468 breast): 117 nM
- TGI (MDA-MB-468 breast): 310 nM
- GI50 (TK-10 renal): 1660 nM
- TGI (TK-10 renal): > 100000 nM
- GI50 (NCI-H226 lung): 449 nM
- TGI (NCI-H226 lung): 3730 nM
- GI50 (M14 melanoma): 259 nM
- TGI (M14 melanoma): 866 nM
- GI50 (U251 glioblastoma): 335 nM
- TGI (U251 glioblastoma): 1150 nM
- GI50 (HCC-2998 colon): 318 nM
- TGI (HCC-2998 colon): 1250 nM
- GI50 (RXF 393 renal): 137 nM
- TGI (RXF 393 renal): 390 nM
- GI50 (A549 NSCLC): 441 nM
- TGI (A549 NSCLC): 2970 nM
- GI50 (UACC-62 melanoma): 304 nM
- TGI (UACC-62 melanoma): 1850 nM
- GI50 (BT-549 breast): 140 nM
- TGI (BT-549 breast): 532 nM
- GI50 (OVCAR-5 ovarian): 522 nM
- TGI (OVCAR-5 ovarian): > 100000 nM
- GI50 (RPMI-8226 leukemia): 152 nM
- TGI (RPMI-8226 leukemia): 290 nM
